Experimental data reported in patent US20160361311A1, “LIGANDS THAT TARGET HEPATITIS C VIRUS E2 PROTEIN” (AMERICAN UNIVERSITY OF CAIRO, priority 2014, published 2016).
pIC50: −log10 of the molar value. Like-named read-outs stand apart in the source and are kept apart here.

What was measured:
RD114pp = RD114pp infection of Huh-7 cells (luciferase); assay type: cell-based, feline endogenous virus RD114; details: read-out: IC50 RD114pp
Experimental: (§1) Pseudotyped retroviral particles harboring HCV envelope proteins (HCVpp) from different genotypes were produced as described previously. A plasmid encoding the feline endogenous virus RD114 glycoprotein [35] was used for the production of RD114pp. Both HCVpp and RD114pp expressed Firefly luciferase.
(§2) To identify ligands that inhibit HCV infection, Huh-7 cells were seeded in 96-well plates and treated the day after with six different concentrations of each ligand diluted in DMSO in duplicate using a Zephyr automated liquid handling workstation (Caliper BioSciences, Hopkinton, Mass.). The final concentration of DMSO (1%) was adjusted to be the same for all ligand concentrations. Cells treated with DMSO were used as negative controls. Cells treated with different concentrations of anti-CD81 (JS-81 from BD Pharmingen, San Jose, Calif.) 1 hour before infection, were also used as positive controls. The third day, RD114pp, HCVpp or HCVcc were inoculated and incubated for 30 hours at 37° C. Firefly and Gaussia luciferase assays were performed as indicated by the manufacturer (Promega, San Luis Obispo, Calif.).
Pseudotyped retroviral particles harboring the envelope protein of an endogenous feline retrovirus (RD114pp) were first used to determine the specificity and the safety of molecules.

recombinant E2 protein = target: T1, recombinant E2 protein (Hepatitis C virus genotype 1b, UniProt Q9WMX2); experiment: Surface plasmon resonance (Biacore T100) binding to recombinant E2 immobilized on CM5 chip; details: for Binding (RU): 200 μM ligand in PBS, 3 min association; for Dissociation 1 (RU): response remaining 10 sec after rinsing with buffer; for Dissociation 2 (RU): response remaining 50 sec after rinsing with buffer; for rate of ligand dissociation (in words): compared to the other ligands
T1 construct: encoding amino acids 384-656 of the Con1 envelope protein 2 ectodomain (eE2); made in house; host or cells: HEK293T cells (lentiviral, secreted)
Source text: A construct containing the sequence encoding amino acids 384-656 of the Con1 envelope protein 2 ectodomain (eE2), a genoptype 1 E2 sequence, was cloned into a lentiviral expression vector with a carboxy-terminal Protein A tag separated by a PreScission Protease cleavage consensus sequence. eE2-ProtA was stably expressed in HEK293T cells using lentiviral infection. The protein was secreted into the media and supernatants were purified using IgG Sepharose (GE Healthcare, Piscataway, N.J.). eE2-ProtA was eluted with 100 mM sodium citrate and 20 mM KCl at pH 3 directly into tubes containing 1M Tris pH 9 for immediate neutralization. PreScission Protease was added to the eluted sample at a ratio of 1:50 (enzyme:eE2), and the digest was then dialyzed into 20 mM HEPES pH 7.5, 250 mM NaCl, 5% glycerol. eE2 was separated from the cleaved tag and the PreScission Protease by ion exchange chromatography.
The set of 34 of the ligands predicted by AutoDock to bind to E2 were tested experimentally to determine if they bind to recombinant E2 protein immobilized on a chip using surface Plasmon resonance. The SPR analyses were performed using a Biacore T100 workstation (GE Healthcare, NJ, USA) and Prot-A-tagged HCV E2 protein. 1 μM ProtA-HCV E2 was diluted into 10 mM sodium acetate buffer pH 5 and immobilized for 15 min at a flow speed of 5 μl/min onto a CM5 sensor chip using amine coupling (EDC-NHS). Approximately 10,000 response units (RU) of protein were immobilized on the chip. His-CD81-LEL (Bioclone-CA/USA) binding to HCV E2 was tested prior to injecting the ligands to confirm the E2 protein was functional and would bind CD81-LEL. In a typical experiment with CD81, […] of his-CD81 in 114 μl PBS was injected into channel 2 and 106.4 RUs of CD81 bound to the E2 on the chip. This was followed by testing the binding of the 34 virtual screening hits where the ligands were prepared as 200 μM solutions in PBS and they were introduced to the protein using a pre-programmed 3 min association and 1 min dissociation interval. The response was measured at two time points during dissociation, 10 and 50 seconds, to obtain information on the rate of ligand dissociation from E2. Twenty-three of the ligands predicted by AutoDock to bind to E2 were observed by SPR to bind to the recombinant protein (Table 2). The measured responses for the ligands that bound varied from 54 to 276 RUs. Data was also obtained on the rate of ligand dissociation by measuring the amount of ligand remaining bound at two time points, dissociation 1 (10 seconds) and dissociation 2 (50 seconds), during the rinsing of the chip with buffer (FIG. 8). The majority of the ligands dissociated quickly, as one might expect for small molecules that bind to the surface of a protein.

HCVcc = HCVcc infection of Huh-7 cells (Gaussia luciferase); assay type: cell-based, HCV; details: Hepatitis C virus, Huh-7, 30 h, read-out: IC50 HCVcc
Experimental: The cell culture-produced HCV particles (HCVcc) used in this study were based on the JFH1 strain [36] and were prepared as described previously. They were engineered to express the A4 epitope, titer-enhancing mutations and Gaussia luciferase.
as §2
(§3) The remaining ligands were next tested against pseudotyped retroviral particles harboring genotype-2a HCV envelope proteins (HCVpp 2a), cell culture produced HCV particles (HCVcc) or RD114pp. As a positive control, an anti-CD81 antibody was used in parallel.

HCVpp 2a = HCVpp 2a infection of Huh-7 cells, 96-well (luciferase); assay type: cell-based, HCV; details: Hepatitis C virus, Huh-7, 30 h, read-out: IC50 HCVpp
Experimental: as §1, §2, §3

[1] = Feline endogenous virus RD114, Huh-7, 30 h

T1 sequence (Q9WMX2 384-656): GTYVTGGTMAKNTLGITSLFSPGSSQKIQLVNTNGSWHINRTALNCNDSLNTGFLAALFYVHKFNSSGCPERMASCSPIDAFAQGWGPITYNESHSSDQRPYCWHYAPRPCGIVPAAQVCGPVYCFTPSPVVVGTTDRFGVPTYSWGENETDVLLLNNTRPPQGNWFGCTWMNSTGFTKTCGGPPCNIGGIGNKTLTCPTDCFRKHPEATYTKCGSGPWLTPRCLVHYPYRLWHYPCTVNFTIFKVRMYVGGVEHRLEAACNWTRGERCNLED

SMILES	pIC50 (RD114pp; [1])	Binding (RU) (recombinant E2 protein)	Dissociation 1 (RU) (recombinant E2 protein)	Dissociation 2 (RU) (recombinant E2 protein)	pIC50 (HCVcc)	pIC50 (HCVpp 2a)	rate of ligand dissociation (in words) (recombinant E2 protein)	binding to recombinant E2 protein by SPR (in words) (recombinant E2 protein)	pIC50 (RD114pp; Huh-7 cells, 30 hours)
Cc1ccc([N+](=O)[O-])cc1NC(=O)Nc1ccc(S(N)(=O)=O)cc1 [Ligand 146554, 1-(2-methyl-5-nitrophenyl)-3-(4-sulfamoylphenyl)urea]	< 5.00	63.4	3.1	0.8					
Cc1cc(-c2ccc(N3C(=O)CC4(CCCC4)C3=O)c(C)c2)ccc1N1C(=O)CC2(CCCC2)C1=O [Ligand 308835, 2-[4-[4-(1,3-dioxo-2-azaspiro[4.4]nonan-2-yl)-3-methylphenyl]-2-methylphenyl]-2-azaspiro[4.4]nonane-1,3-dione]	< 5.00	64.8	7.1	5.2	< 5.00	< 5.00			
O=S(=O)(F)c1ccc2nc(-c3cccc(Sc4ccccc4)c3)cc(Cl)c2c1 [Ligand 158413, 4-chloro-2-(3-phenylsulfanylphenyl) quinoline-6-sulfonyl fluoride]	< 5.00	71.2	10.3	8.5	< 5.00	< 5.00	slower off rates		
CC12CCC3C(CCC4Cc5[nH]c6ccccc6c5CC43C)C1CCC2O (centres unmarked) [Ligand 60785]	5.46	70.4	2.8	0.6					
Nc1nc(N)nc(-c2ccccc2-c2nc(N)nc(N)n2)n1 [Ligand 4429, 6-[2-(4,6-diamino-1,3,5-triazin-2-yl)phenyl]-1,3,5-triazine-2,4-diamine]	< 5.00	155.3	28.9	14.2	< 5.00	< 5.00	slower off rates		
O=C(Nc1cccc([N+](=O)[O-])c1)c1cccc(C(=O)Nc2cccc([N+](=O)[O-])c2)c1 [Ligand 204232]	< 5.00	63.4	2.5	0.4	< 5.00	< 5.00			
Cc1nc(/N=C(\N)N(C)C)[nH]c(=O)c1C [Ligand 113486, 2-(5,6-dimethyl-4-oxo-1H-pyrimidin-2-yl)-1,1-dimethylguanidine]	< 5.00	104.7	7	2.6	< 5.00	< 5.00			
O=C1CCCc2cc3c(cc21)CC1(C3)Cc2cc3c(cc2C1)C(=O)CCC3 [Ligand 670283, 2,2′-spirobi[3,6,7,8-tetrahydro-1H-cyclopenta[g]naphthalene]-5,5′-dione]	5.52	54.3	4	1.4					
C1C[C@H]2NCC[C@@H]3NCC[C@H](N1)N32 [Ligand 81462]	< 5.00	57.2	9.2	6.5	< 5.00	< 5.00	slower off rates		
CCCc1nc(NC(=O)c2ccccc2)nc(NC(=O)c2ccccc2)n1 [Ligand 359472, N-(4-benzamido-6-propyl-1,3,5-triazin-2-yl)benzamide]	< 5.00	62	2.5	0.8	< 5.00	< 5.00			
NC1=N/C(=N\c2ccccc2)N[C@H](c2ccccc2)N1 [Ligand 3076, (4R)-6-N,4-diphenyl-1,4-dihydro-1,3,5-triazine-2,6-diamine]	6.60	92.2	3.2	1.6					
O=[N+]([O-])c1cc([N+](=O)[O-])c2cccnc2c1O [Ligand 57103]	6.52	81.6	11.4	2.5			slower off rates		
c1ccc(-c2ccc3c(c2)N[C@H]([C@H]2Nc4cc(-c5ccccc5)ccc4O2)O3)cc1 [Ligand 84100, (2S)-5-phenyl-2-[(2S)-5-phenyl-2,3-dihydro-1,3-benzoxazol-2-yl]-2,3-dihydro-1,3-benzoxazole]	< 5.00	71.2	4.2	2.2	< 5.00	< 5.00			
O=C(O)C[C@H]1OCC=C2CN3CC[C@]45c6ccccc6N[C@H]4[C@H]1[C@H]2C[C@H]35 [Ligand 121861]	< 5.00	88.4	26.1	20.4	< 5.00	< 5.00	slower off rates	bound	
COc1ccc(C2=C[C@@H](c3ccc(OC)c(OC)c3)c3c(c4ccccc4oc3=O)O2)cc1OC [Ligand 211490, (4S)-2,4-bis(3,4-dimethoxyphenyl)-4H-pyrano[3,2-c]chromen-5-one]	6.30	102.9	6.1	2.1					
NC1=Nc2ccccc2C(=O)[N+]1=C(N)N [Ligand 403379, 2-amino-3-(diaminomethylidene) quinazolin-3-ium-4-one]	< 5.00	58	2.8	1.1	< 5.00	< 5.00			
NC(=O)C(=Cc1ccncc1)c1cccc2ccccc12 (stereo in doubt) [Ligand 144694, (E)-2-naphthalen-1-yl-3-pyridin-4-ylprop-2-enamide]	< 5.00	118.8	6	2.3	< 5.00	< 5.00			
CC[C@@]1(O)C(=O)OCc2c1cc1n(c2=O)Cc2cc3c(NC(=O)CN)cccc3nc2-1.Cl [Ligand 639174]		55.4	2.3	0.6					7.52
CC1(C)N=C(N)N=C(N)N1c1ccc(OCCCOc2ccccc2)c(Cl)c1 [Ligand 133071, 3-[3-chloro-4-(3-phenoxypropoxy)phenyl]-4,4-dimethyl-1H-1,3,5-triazin-3-ium-2,6-diamine]	7.00	276.3	1.8	−2					
